Like-named read-outs stand apart in the source and are kept apart here.
How the values were obtained:
[1] = Tiotropium maximum solubility in a selection of excipients; assay type: physicochemical
Method: For the evaluation of the compatibility of the active in each excipient, 25 mg of tiotropium bromide (TTB) were weighed in suitable glass containers and increasing amounts of the appropriate solvent were added. The samples were subjected to heating and ultrasonication when necessary. The appearance of the mixture and the maximum concentration of TTB in each solvent was recorded.
The solubility of the active was determined in different excipients (polymer solvents, permeation enhancers, surfactants, emollients, etc.). Table 1 summarizes the maximum solubility achieved in each of them.

[2] = cited from earlier work

## C[N+]1(C)[C@@H]2CC(OC(=O)C(O)(c3cccs3)c3cccs3)C[C@H]1[C@@H]1O[C@@H]12.[Br-] (stereo partly drawn) [Tiotropium bromide, [(1S,2S,4R,5R)-9,9-dimethyl-3-oxa-9-azoniatricyclo[3.3.1.0^2,4]nonan-7-yl]2-hydroxy-2,2-dithiophen-2-ylacetate bromide]
[1]; in 1,3-propanediol
  Maximum solubility: 2.50 % (w/w)
[1]; in Benzyl Alcohol
  Maximum solubility: 50.00 % (w/w)
[1]; in Cremophor EL
  Maximum solubility: 0.20 % (w/w)
[1]; in Cremophor RH40
  Maximum solubility: <0.12 % (w/w)
[1]; in DMSO
  Maximum solubility: >30.00 % (w/w)
[1]; in Dimethyl fomamide
  Maximum solubility: 40.00 % (w/w)
[1]; in Ethanol
  Maximum solubility: 0.80 % (w/w)
[1]; in Ethyl Oleate
  Maximum solubility: <0.12 % (w/w)
[1]; in Glycerol
  Maximum solubility: 6.00 % (w/w)
[1]; in IPM
  Maximum solubility: <0.12 % (w/w)
[1]; in Isopropyl Alcohol
  Maximum solubility: 0.13 % (w/w)
[1]; in Kollicream ® 3C
  Maximum solubility: <0.12 % (w/w)
[1]; in Labrasol
  Maximum solubility: 0.55 % (w/w)
[1]; in Lactic acid
  Maximum solubility: 20.00 % (w/w)
[1]; in Linseed oil
  Maximum solubility: <0.12 % (w/w)
[1]; in MCT
  Maximum solubility: <0.12 % (w/w)
[1]; in Oleic acid
  Maximum solubility: <0.12 % (w/w)
[1]; in PEG-400
  Maximum solubility: 1.67 % (w/w)
[1]; in Polysorbate 20
  Maximum solubility: 1.15 % (w/w)
[1]; in Polysorbate 80
  Maximum solubility: 0.20 % (w/w)
[1]; in Propylene Glycol
  Maximum solubility: 5.00 % (w/w)
[1]; in Transcutol HP
  Maximum solubility: <0.12 % (w/w)
[1]; in Triacetin
  Maximum solubility: <0.12 % (w/w)
[1]; in Triolein
  Maximum solubility: <0.12 % (w/w)
[2]; in dimethyl sulphoxide
  solubility: freely soluble
[2]; in methanol
  solubility: soluble
[2]; in methylene chloride
  solubility: practically insoluble
[2]; in water
  solubility: sparingly soluble
[2]; room temperature, independent of pH
  solubility in aqueous solutions: approx. 2.5%
